These results are taken from US9120786B2, “Triazine carboxamides as sodium channel blockers” (priority 2013, dated 2015).

The target of the assay is human Nav1.7 (Homo sapiens (Human), UniProt Q15858). Kind of assay: FLIPR sodium dye assay (CoroNa Green) for sodium channel blocking activity in recombinant Nav1.7/HEK293 cells. Type of assay: cell-based.

Each structure is given as a SMILES string. Some results are limits rather than exact numbers.

Chain of human Nav1.7 (Q15858 with tags, fused parts or gaps limits assumed): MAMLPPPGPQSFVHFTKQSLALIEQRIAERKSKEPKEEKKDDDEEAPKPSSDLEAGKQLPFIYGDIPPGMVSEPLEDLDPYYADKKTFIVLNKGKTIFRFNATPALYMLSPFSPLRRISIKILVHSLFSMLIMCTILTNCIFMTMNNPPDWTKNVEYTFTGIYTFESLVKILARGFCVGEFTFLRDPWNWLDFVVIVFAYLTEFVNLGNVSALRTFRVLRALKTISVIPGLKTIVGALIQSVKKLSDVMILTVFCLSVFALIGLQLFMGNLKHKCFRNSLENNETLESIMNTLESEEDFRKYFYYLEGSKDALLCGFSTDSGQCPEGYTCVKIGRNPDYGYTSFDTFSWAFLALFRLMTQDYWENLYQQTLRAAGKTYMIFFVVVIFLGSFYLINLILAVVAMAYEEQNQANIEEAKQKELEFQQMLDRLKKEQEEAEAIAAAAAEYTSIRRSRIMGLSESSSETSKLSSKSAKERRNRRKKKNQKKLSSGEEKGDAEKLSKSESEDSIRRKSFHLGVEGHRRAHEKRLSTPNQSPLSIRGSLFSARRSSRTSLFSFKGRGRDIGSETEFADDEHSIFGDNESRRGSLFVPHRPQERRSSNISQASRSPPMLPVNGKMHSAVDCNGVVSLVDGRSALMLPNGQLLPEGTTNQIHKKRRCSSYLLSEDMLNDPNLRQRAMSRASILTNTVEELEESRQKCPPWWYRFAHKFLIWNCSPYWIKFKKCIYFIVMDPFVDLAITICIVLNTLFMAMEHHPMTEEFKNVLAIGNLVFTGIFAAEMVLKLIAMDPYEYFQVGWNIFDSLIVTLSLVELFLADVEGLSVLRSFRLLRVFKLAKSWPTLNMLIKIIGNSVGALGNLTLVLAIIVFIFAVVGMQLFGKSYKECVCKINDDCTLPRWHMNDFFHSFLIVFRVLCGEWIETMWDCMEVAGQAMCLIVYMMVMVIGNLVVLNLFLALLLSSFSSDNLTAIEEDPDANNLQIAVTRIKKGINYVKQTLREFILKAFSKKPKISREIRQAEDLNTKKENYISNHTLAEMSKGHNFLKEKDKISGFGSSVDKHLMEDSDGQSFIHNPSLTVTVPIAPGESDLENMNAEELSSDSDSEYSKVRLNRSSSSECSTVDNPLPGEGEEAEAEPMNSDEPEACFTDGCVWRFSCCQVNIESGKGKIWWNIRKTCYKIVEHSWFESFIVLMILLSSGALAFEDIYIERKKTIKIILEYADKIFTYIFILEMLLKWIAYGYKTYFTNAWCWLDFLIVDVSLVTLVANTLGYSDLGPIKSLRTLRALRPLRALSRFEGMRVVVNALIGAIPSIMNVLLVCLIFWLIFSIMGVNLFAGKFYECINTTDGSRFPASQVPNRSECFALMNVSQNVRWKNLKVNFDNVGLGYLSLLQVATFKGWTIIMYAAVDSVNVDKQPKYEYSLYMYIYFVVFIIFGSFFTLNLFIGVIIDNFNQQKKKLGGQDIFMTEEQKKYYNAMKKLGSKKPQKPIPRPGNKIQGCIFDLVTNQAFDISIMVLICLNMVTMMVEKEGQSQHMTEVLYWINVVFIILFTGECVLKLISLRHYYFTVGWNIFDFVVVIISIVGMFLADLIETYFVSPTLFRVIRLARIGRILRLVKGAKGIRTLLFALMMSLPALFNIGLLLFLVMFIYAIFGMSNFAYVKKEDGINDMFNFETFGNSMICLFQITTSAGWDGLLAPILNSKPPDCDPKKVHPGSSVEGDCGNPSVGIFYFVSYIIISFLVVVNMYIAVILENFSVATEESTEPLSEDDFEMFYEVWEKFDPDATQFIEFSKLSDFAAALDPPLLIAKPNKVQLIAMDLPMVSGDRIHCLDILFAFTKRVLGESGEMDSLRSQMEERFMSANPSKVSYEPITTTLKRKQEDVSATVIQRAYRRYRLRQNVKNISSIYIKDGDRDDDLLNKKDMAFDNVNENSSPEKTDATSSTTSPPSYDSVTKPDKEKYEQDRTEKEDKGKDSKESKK

Broadly, the IC50 is the midpoint of a concentration-inhibition curve. As for `CCN(c1nc(C(N)=O)nc(-c2ccc(Oc3ccc(OC(F)(F)F)cc3)cc2)n1)C(C)C` [Compound 4, 4-(ethyl(isopropyl)amino)-6-(4-(4-(trifluoromethoxy)phenoxy)phenyl)-1,3,5-triazine-2-carboxamide], the IC50 was over 20 µM.

With `CCN(c1nc(C(N)=O)nc(-c2ccc(Oc3ccc(C(F)(F)F)cn3)cc2)n1)C(C)C` [Compound 5, 4-(ethyl(isopropyl)amino)-6-(4-((5-(trifluoromethyl)pyridin-2-yl)oxy)phenyl)-1,3,5-triazine-2-carboxamide], the IC50 was determined as 0.645 ± 0.14 µM.

In the case of `NC(=O)c1nc(N[C@H]2CCNC2=O)nc(-c2ccc(Oc3ccc(OC(F)(F)F)cc3)cc2)n1` [Compound 2, (S)-4-((2-oxopyrrolidin-3-yl)amino)-6-(4-(4-(trifluoromethoxy)phenoxy)phenyl)-1,3,5-triazine-2-carboxamide], the IC50 is 0.326 ± 0.116 µM.

Consider `NC(=O)c1nc(-c2ccc(Oc3ccc(OC(F)(F)F)cc3)cc2)nc(N2CCOCC2)n1` [Compound 9, 4-morpholino-6-(4-(4-(trifluoromethoxy)phenoxy)phenyl)-1,3,5-triazine-2-carboxamide], for which the IC50 amounted to 0.596 ± 0.102 µM.

For `NC(=O)c1nc(NCCO)nc(-c2ccc(Oc3ccc(C(F)(F)F)cn3)cc2)n1` [Compound 12, 4-((2-hydroxyethyl)amino)-6-(4-((5-(trifluoromethyl)pyridin-2-yl)oxy)phenyl)-1,3,5-triazine-2-carboxamide], the IC50 turned out to be 0.243 ± 0.125 µM.

Take `NC(=O)c1nc(-c2ccc(Oc3ccc(C(F)(F)F)cn3)cc2)nc(N2CCOCC2)n1` [Compound 10, 4-morpholino-6-(4-((5-(trifluoromethyl)pyridin-2-yl)oxy)phenyl)-1,3,5-triazine-2-carboxamide]: the IC50 turned out to be 0.353 ± 0.1 µM.

Regarding `N#Cc1nc(-c2ccc(Oc3ccc(C(F)(F)F)cn3)cc2)nc(N2CCOCC2)n1` [Compound 8, 4-morpholino-6-(4-((5-(trifluoromethyl)pyridin-2-yl)oxy)phenyl)-1,3,5-triazine-2-carbonitrile], the IC50 amounted to 8.09 ± 0.959 µM.

For `N#Cc1nc(N[C@H]2CCNC2=O)nc(-c2ccc(Oc3ccc(OC(F)(F)F)cc3)cc2)n1` [Compound 1, (S)-4-((2-oxopyrrolidin-3-yl)amino)-6-(4-(4-(trifluoromethoxy)phenoxy)phenyl)-1,3,5-triazine-2-carbonitrile], the concentration for half-maximal inhibition (IC50) amounted to 2.25 ± 0.37 µM.

As to `NC(=O)c1nc(N)nc(N2CC(Oc3ccc(C(F)(F)F)cn3)C2)n1` [Compound 11, 4-amino-6-(3-((5-(trifluoromethyl)pyridin-2-yl)oxy)azetidin-1-yl)-1,3,5-triazine-2-carboxamide], the IC50 was over 20 µM.

In the case of `NC(=O)c1nc(N)nc(-c2ccc(Oc3ccc(C(F)(F)F)cn3)cc2)n1` [Compound 13, 4-amino-6-(4-((5-(trifluoromethyl)pyridin-2-yl)oxy)phenyl)-1,3,5-triazine-2-carboxamide], the IC50 was over 20 µM.

For the compound `NC(=O)c1nc(N[C@H]2CCNC2=O)nc(N2CC(Oc3ccc(C(F)(F)F)cn3)C2)n1` [Compound 14, (S)-4-((2-oxopyrrolidin-3-yl)amino)-6-(3-((5-(trifluoromethyl)pyridin-2-yl)oxy)azetidin-1-yl)-1,3,5-triazine-2-carboxamide], the half-inhibitory concentration (IC50) was over 20 µM.
